From patent US5235045A, “Non-azo naphthalimide dyes” (priority 1992, dated 1993)
Where two headings read alike, the source gives them in different places.

Experiments:
[1] = tested on: H9 cells; assay: Dye-mediated light kill of H9 cells (trypan blue); assay type: cell-based; settings: Homo sapiens, read-out: Percent Viability
Protocol: Photoinduced killing of H9 cells with Compound 1b as the mediator of photochemical toxicity were carried out according to the following protocol:
Compound 1b was added to the H9 cells (5×10^5 /ml) in medium or 100% human plasma to give dye concentrations of 0, 25 and 100 μM (1 control, 2 duplicates of both non-azo dye samples). Two 2-ml aliquots of each of the duplicated dye samples was irradiated with 10J/cm^2 total energy of 450±35 nm wavelength light in a sealed 3-ml test tube. Immediately after irradiation, the cells were centrifuged at 450×g for 10 minutes, and the pellets resuspended in the original volume of fresh RPMI-1640+10% FCS+gentamycin. The cell suspensions were transferred to a 12-well TC plate and placed in a 37° C. 5% CO2 incubator. Cell viability counts (trypan blue) were carried out at 4, 24, 48, and 72 hours post irradiation. The results of these experiments are summarized in Tables 7 (medium) and 8 (100% human plasma).
Photoinduced killing of H9 cells with Compound VII as the mediator of photochemical toxicity were carried out in 10% FCS medium according to the same general protocol using concentrations of the dye at 0, 5, 25 and 100 μM., and irradiating at 420±5 nm at 10J/cm^2 total energy.

[2] = tested on: H9 cells; assay: Cell viability in absence of light (trypan blue exclusion); assay type: cell-based, human; settings: dark, medium 1.5 hours, counted 2.5 hours after
From the text: Following the protocol of (1), above, H9 cells were stained with Compound lb, and the technique of fluorescent microscopy was used to determine visually the sites of localization of dye fluorescence in living cells. Specifically, H9 cells were counted with a hemocytometer and diluted to 5×10^5 /ml. […] Cytospin slides of the cell suspensions were made and they were examined with the fluorescence microscope (Olympus AH-2) using B excitation plus a 460 nm interference excitation filter and a 495 nm emission filter. The cells were also counted with a hemocytometer and their viability determined (see below). […] The former may reflect the diffusional component of the dye incorporation, or may reflect binding in the ER membrane. The latter may indicate lysosomal localization of pinocytosed dye as occurs with Lucifer Yellow.
Cell viability was determined using dye incorporated according to the protocol directly above. Viability was determined using a trypan blue dye exclusion test in which "live" cells with competent cell membranes exclude the dye. Table 5 summarizes the data obtained using cells exposed to Compound 1b in culture medium, and Table 6 summarizes data obtained using cells exposed to Compound VII.

[3] = tested on: Vero cells; assay: Cellular toxicity in Vero cells (viral-medium suspension samples); assay type: cell-based; settings: DiEd6Br
Protocol: (§1) Each sample including the stock virus were assayed on Vero cells for PFU/ml of HSV-1. The assay consisted of growing Vero cells in minimal essential medium with Hanks balanced salt solution supplemented with 10% fetal bovine serum, L-glutamine and antibiotics. Hepes buffer (2%) was added for growth in open plates (twelve well microplates from CO-star). Ten fold dilutions of each sample were prepared and 0.1 ml of the appropriate dilution for each individual sample was adsorbed at 37° C. for 1.5 hr. on a cell monolayer from which the growth medium had been removed. After the adsorption period, the cell monolayer was washed and an overlay consisting of equal volumes of 2X strength L-15 medium and 2% methylcellulose was added. Following an appropriate incubation time at 37° C. (about 4 days), the overlay medium was removed. Monolayers were fixed with methanol and stained with giemsa to elaborate the presence of plaques. The plaques were counted using a dissecting microscope at a magnification of 20X.
as §1, with “Co-star).” for “CO-star).”

[4] = Bleaching and recovery of fluorescence in aqueous suspension of Cremophor EL; assay type: physicochemical
Protocol: A 14.9 millimolar stock solution of Ed6Br in Cremophor EL was used to make 3 ml of a micellar Cremophor suspension having a concentration averaged over the entire sample volume of […]. A […] aliquot was removed and diluted with 2.9 ml of distilled water for measurement of fluorescence using an SLM 500C spectrofluorometer (excitation, 420 nm, emission, 520 nm). The 3 ml sample was divided into two 1.5 ml aliquots placed in quartz crusetts. One sample was irradiated with stirring with 420 # 5 nm filtered light from a xenon arc lamp with an irradiance of 20 mW/cm^2 and with the companion sample wrapped in aluminum foil (dark control) and maintained alongside of the irradiated sample. […] After the entire light treatment, both the illuminated and dark control samples were divided into two equal aliquots and held pairwise (dark+previously illuminated) at 4° C. and 20° C. in the absence of light. Aliquots of […] were taken from each sample after 18 and 43 hr and their fluorescence emission values determined using the SLM 500C instrument immediately after sampling.
In an experiment eventually following the protocol described immediately above in Part I (for Ed6Br), the light-induced bleaching of DiEd6Br with 200 J/cm^2 light exposure and recovery of its fluorescence upon standing in the dark at 22° C. were determined.

[5] = H9, 4 h, no hν, 10% FCS medium, 4 hours
[6] = H9, 4 h, no hν, 100% human plasma, 4 hours
[7] = H9, 24 h, no hν, 10% FCS medium, 24 hours
[8] = H9, 24 h, no hν, 100% human plasma, 24 hours
[9] = H9, 48 h, no hν, 10% FCS medium, 48 hours
[10] = H9, 48 h, no hν, 100% human plasma, 48 hours
[11] = H9, 72 h, no hν, 10% FCS medium, 72 hours
[12] = H9, 72 h, no hν, 100% human plasma, 72 hours
[13] = H9, light or radiation study, 4 h, hν 10J/cm^2, 450±35 nm, 10% FCS medium, 4 hours
[14] = H9, light or radiation study, 4 h, hν 10J/cm^2, 450±35 nm, 100% human plasma, 4 hours
[15] = H9, light or radiation study, 24 h, hν 10J/cm^2, 450±35 nm, 10% FCS medium, 24 hours
[16] = H9, light or radiation study, 24 h, hν 10J/cm^2, 450±35 nm, 100% human plasma, 24 hours
[17] = H9, light or radiation study, 48 h, hν 10J/cm^2, 450±35 nm, 10% FCS medium, 48 hours
[18] = H9, light or radiation study, 48 h, hν 10J/cm^2, 450±35 nm, 100% human plasma, 48 hours
[19] = H9, light or radiation study, 72 h, hν 10J/cm^2, 450±35 nm, 10% FCS medium, 72 hours
[20] = H9, light or radiation study, 72 h, hν 10J/cm^2, 450±35 nm, 100% human plasma, 72 hours

CCCCCCNc1ccc2c3c(cccc13)C(=O)N(CCCCCC)C2=O [Compound 1b, 4-(hexyl)amino-N-hexyl-1,8-naphthalimide]
viability at 25 µM [1, 5]: 96.9%
viability at 25 µM [1, 6]: 97.2%
viability at 100 µM [1, 5]: 94.6%
viability at 100 µM [1, 6]: 99.2%
viability at 25 µM [1, 7]: 94.8%
viability at 25 µM [1, 8]: 93.4%
viability at 100 µM [1, 7]: 94.6%
viability at 100 µM [1, 8]: 94.3%
viability at 25 µM [1, 9]: 90.5%
viability at 25 µM [1, 10]: 86.4%
viability at 100 µM [1, 9]: 91.3%
viability at 100 µM [1, 10]: 90.7%
viability at 25 µM [1, 11]: 91.4%
viability at 25 µM [1, 12]: 85%
viability at 100 µM [1, 11]: 85.1%
viability at 100 µM [1, 12]: 87.4%
viability at 25 µM [1, 13]: 62.8%
viability at 25 µM [1, 14]: 97.9%
viability at 100 µM [1, 13]: 87.2%
viability at 100 µM [1, 14]: 97.4%
viability at 25 µM [1, 15]: 8.4%
viability at 25 µM [1, 16]: 94.4%
viability at 100 µM [1, 15]: 52%
viability at 100 µM [1, 16]: 92.4%
viability at 25 µM [1, 17]: 10%
viability at 25 µM [1, 18]: 86.5%
viability at 100 µM [1, 17]: 64.8%
viability at 100 µM [1, 18]: 92.6%
viability at 25 µM [1, 19]: 30.6%
viability at 25 µM [1, 20]: 90.2%
viability at 100 µM [1, 19]: 71.4%
viability at 100 µM [1, 20]: 88.2%
dead cells ([2]; 5 μM): 4
live cells ([2]; 5 μM): 116
dead cells ([2]; 25 μM): 4
live cells ([2]; 25 μM): 136

CCCCCCN1C(=O)c2cccc3c(NCCNC(=O)CCCCC(=O)NCCNc4c(Br)cc5c6c(cccc46)C(=O)N(CCCCCC)C5=O)c(Br)cc(c23)C1=O [Compound XLIV]
cellular toxicity ([3]; 2 concentrations, not irradiated (Table 18 experiment)): no evidence of cellular toxicity
cellular toxicity ([3]; 8 concentrations, not irradiated (Table 15 experiment)): no evidence of cellular toxicity
cellular toxicity ([3]; 8 concentrations, not irradiated (Table 16 experiment)): no evidence of cellular toxicity
fluorescence, % of initial (dark) value ([4]; 200 J/cm^2, 420 nm): 32.2%
fluorescence recovered, % of initial value ([4]; 70 hours at 22° C.): 62.7%
fluorescence recovered, % of initial value ([4]; 166 hours at 22° C.): 64.0%
initially activated species permanently losing fluorescence ([4]; Cremophor EL): Approximately 50%
initially activated species recovering fluorescence ([4]; Cremophor EL): Approximately 50%
